From US6469162B1, “Compounds with chelation affinity and selectivity for first transition series elements: use in medical therapy and diagnosis” (Concat, Ltd., priority 1995, dated 2002)

Columns and labels:
[1] = Acute in vivo toxicity, single intravenous dose to mice; conditions: 4.0 mM/kg single intravenous dose, survival for over 14 days
Procedure: This example illustrates the low in vivo toxicity of a representative ligand administer intravenously to mice.
This in vivo LD50 toxicity dose results in an instantaneous in vivo concentration which is orders of magnitude greater than the dose of this agent which inhibits mammalian cell replication in vitro (0.009 mM/L).

[2] = tested on: mature, nonreplicating cultures of HFF (human foreskin fibroblasts); assay: Toxicity toward nonproliferating mammalian cells in vitro; type: cell-based; conditions: 0.3 mM, nonreplicating HFF in maintenance media, five-day period of observation
[3] = Subacute toxicity, repeated intravenous doses to rats; type: in vivo, Sprague Dawley rats; conditions: 0.05 millimoles per kg i.v. on 10 days
Excerpt: Ten male Sprague Dawley rats 29 days old and weighing between 73.4 and 87.8 grams at the beginning of the experiment were randomized, employing the block stratification method, into two groups consisting of five rats each. On each of days 1, 2, 3, 6, 7, 8, 9, 10, 13 and 14 of the experiment one set of rats received an intravenous dose of N,N′,N″-tris(dihydroxyphosphorylmethyl)-1,4,7-triazacyclononane (Example 1 C in U.S. Pat. No. 5,236,695) equal to 0.05 millimoles per kg of initial body weight (experimental group) while the other group received an equivalent volume of normal saline solution. The weights of the animals were recorded three times per week and the animals were sacrificed on the 28th day, major organs removed and weighed and tissues removed for microscopic examination.

Compound	mice surviving [1]	effect on resting cells [2]	weight or rate of weight gain, experimental vs control group ([3]; injection period and two-week post-injection period)	microscopic examination of tissues, experimental vs control group ([3]; necropsy on the 28th day)	weights of major organs, experimental vs control group ([3]; sacrificed on the 28th day)
O=P(O)(O)CN1CCN(CP(=O)(O)O)CCN(CP(=O)(O)O)CC1 [N,N′,N″-tris-(dihydroxyphosphorylmethyl)-1,4,7-triazacyclononane]	Over 50%				
O=P(O)(O)CN1CCN(CP(=O)(O)O)CCN(CP(=O)(O)O)CC1 [N,N′,N″-tris(dihydroxyphosphorylmethyl)-1,4,7-triazacyclononane]		no effect	no statistically significant difference	no differences	no differences
